The record followed here is ChEMBL document CHEMBL2074068, “Flavonoid permeability across an in situ model of the blood-brain barrier” (Free Radic Biol Med, 2004).

Structures are written as SMILES.

Series [1] addresses T1, ATP-dependent translocase ABCB1 (Homo sapiens, UniProt P08183). Nature of the series: TP_TRANSPORTER: cell accumulation in MDR1-expressing MDCK cells. It is filed as functional, cell-based. The following applies: dog.
The target of series [2] is T1, ATP-dependent translocase ABCB1. Nature of the series: TP_TRANSPORTER: cell accumulation of colchicine in the presence of Naringenin at a concentration of 100uM in MDR1-expressing MDCK cells. It is filed as functional, cell-based. The conditions noted are these: dog.

T1 sequence (P08183 whole entry): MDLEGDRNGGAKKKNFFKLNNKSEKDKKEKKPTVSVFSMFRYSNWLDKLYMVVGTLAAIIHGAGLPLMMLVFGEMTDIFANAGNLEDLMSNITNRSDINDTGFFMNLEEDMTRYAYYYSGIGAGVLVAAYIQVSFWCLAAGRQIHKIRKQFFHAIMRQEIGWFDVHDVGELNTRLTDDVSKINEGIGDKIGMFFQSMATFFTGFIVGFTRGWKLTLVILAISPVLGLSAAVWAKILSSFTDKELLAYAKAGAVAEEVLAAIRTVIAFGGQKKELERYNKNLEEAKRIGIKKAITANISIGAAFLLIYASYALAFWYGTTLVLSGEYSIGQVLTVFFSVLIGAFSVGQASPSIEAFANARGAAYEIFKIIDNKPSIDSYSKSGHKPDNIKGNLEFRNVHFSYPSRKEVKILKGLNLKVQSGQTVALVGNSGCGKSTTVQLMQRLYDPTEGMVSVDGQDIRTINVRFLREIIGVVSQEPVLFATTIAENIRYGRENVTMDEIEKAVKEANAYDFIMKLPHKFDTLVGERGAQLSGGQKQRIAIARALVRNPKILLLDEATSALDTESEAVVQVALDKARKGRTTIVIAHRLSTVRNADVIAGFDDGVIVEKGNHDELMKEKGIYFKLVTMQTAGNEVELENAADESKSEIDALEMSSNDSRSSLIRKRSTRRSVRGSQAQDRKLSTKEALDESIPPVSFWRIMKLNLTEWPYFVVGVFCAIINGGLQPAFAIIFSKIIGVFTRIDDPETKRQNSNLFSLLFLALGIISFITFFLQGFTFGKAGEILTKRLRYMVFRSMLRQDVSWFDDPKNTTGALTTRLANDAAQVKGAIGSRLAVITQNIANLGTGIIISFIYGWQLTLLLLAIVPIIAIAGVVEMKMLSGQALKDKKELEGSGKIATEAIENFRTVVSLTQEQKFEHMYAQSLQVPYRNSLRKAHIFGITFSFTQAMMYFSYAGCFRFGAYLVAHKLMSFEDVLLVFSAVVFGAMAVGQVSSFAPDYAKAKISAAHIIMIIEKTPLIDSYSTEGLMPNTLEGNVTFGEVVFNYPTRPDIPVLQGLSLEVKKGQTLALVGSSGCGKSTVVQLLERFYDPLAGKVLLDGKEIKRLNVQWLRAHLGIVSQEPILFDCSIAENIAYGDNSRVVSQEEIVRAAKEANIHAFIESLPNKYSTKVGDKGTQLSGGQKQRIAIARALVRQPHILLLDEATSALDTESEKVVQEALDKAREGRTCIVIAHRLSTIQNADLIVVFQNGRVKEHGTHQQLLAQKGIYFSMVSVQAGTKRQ

Take `O=C1C[C@@H](c2ccc(O)cc2)Oc2cc(O)cc(O)c21` [NARINGENIN]: the Activity result was “substrate [+]” in series [1] and “inhibitor [+]” in series [2].
